Measurements as given in patent US20100222217A1, “Fungicidal N-[2-(Haloalkoxy)Phenyl]Heteroarylcarboxamides” (priority 2005, published 2010).

System: Alternaria solani
Experiment: Activity against early blight on tomatoes caused by Alternaria solani
Type: in vivo
Conditions: 250 ppm, tomato plants, protective spray, assessed after 5 days; untreated plants 90% infected
Method: The active compounds were separately or jointly prepared as a stock solution comprising 25 mg of active compound which was made up to 10 ml using a mixture of acetone and/or dimethylsulfoxide and the emulsifier Uniperol® EL (wetting agent having emulsifying and dispersing action based on ethoxylated alkylphenols) in a volume ratio of solvent/emulsifier of 99 to 1. The mixture was then made up with water to 100 ml. This stock solution was diluted with the solvent/emulsifier/water mixture described to the desired concentration of active compounds.
Leaves of potted tomato plants of the cultivar “Goldene Königin” were sprayed to runoff point with an aqueous suspension having the concentration of active compounds stated below. The next day, the leaves were infected with an aqueous spore suspension of Alternaria solani in a 2% biomalt solution having a density of 0.17×10^6 spores/ml. The plants were then placed in a water vapor-saturated chamber at temperatures between 20 and 22° C. After 5 days, the disease on the untreated, but infected control plants had developed to such an extent that the infection could be determined visually in %.

Cc1nn(C)cc1C(=O)Nc1ccccc1OC(F)(F)C(F)F [N-[2-(1,1,2,2-tetrafluoroethoxy)phenyl]-1,3-dimethylpyrazol-4-yl-carboxamide] gave an infection of 60%.

System: not given
Experiment: not given
Conditions: not given

First: Cc1nc(C)c(C(=O)Nc2ccccc2OC(F)(F)C(F)F)s1 [Compound I-7, N-[2-(1,1,2,2-tetrafluoroethoxy)phenyl]-2,4-dimethylthiazol-5-ylcarboxamide]
Second: Cc1nc(C(F)(F)F)c(C(=O)Nc2ccccc2OC(F)(F)C(F)F)s1 [Compound I-6, N-[2-(1,1,2,2-tetrafluoroethoxy)phenyl]-2-methyl-4-trifluoromethylthiazol-5-yl-carboxamide]
The melting point of the first is higher: 134 to 135 °C for the first, 118 to 120 °C for the second.

Compared with O=C(Nc1ccccc1OC(F)(F)C(F)Cl)c1cccnc1Cl (stereo not drawn) [Compound I-14, N-[2-(2-chloro-1,1,2-trifluoroethoxy)phenyl]-2-chloronicotinamide], O=C(Nc1ccccc1OC(F)(F)C(F)F)c1cccnc1Cl [Compound I-12, N-[2-(1,1,2,2-tetrafluoroethoxy)phenyl]-2-chloronicotinamide] is higher in melting point: 73 to 76 °C for the first, 126 to 128 °C for the second.

First: Cc1nc(C(F)(F)F)c(C(=O)Nc2ccccc2OC(F)(F)C(F)Cl)s1 (stereo not drawn) [Compound I-9, N-[2-(2-chloro-1,1,2-trifluoroethoxy)phenyl]-2-methyl-4-trifluoromethylthiazole-5-carboxamide]
Second: Cc1nc(C(F)(F)F)c(C(=O)Nc2ccccc2OC(F)(F)C(F)C(F)(F)F)s1 (stereo not drawn) [Compound I-8, N-[2-(1,1,2,3,3,3-hexafluoropropoxy)phenyl]-2-methyl-4-trifluoromethylthiazole-5-carboxamide]
The melting point of the first is higher: 80 to 81 °C for the first, 70 to 71 °C for the second.

First: O=C(Nc1ccccc1OC(F)(F)C(F)C(F)(F)F)c1cccnc1Cl (stereo not drawn) [Compound I-13, N-[2-(1,1,2,3,3,3-hexafluoropropoxy)phenyl]-2-chloronicotinamide]
Second: Cn1cc(C(=O)Nc2ccccc2OC(F)(F)C(F)C(F)(F)F)c(C(F)(F)F)n1 (stereo not drawn) [Compound I-1, N-[2-(1,1,2,3,3,3-Hexafluoropropoxy)phenyl]-1-methyl-3-trifluoromethyl-1H-pyrazole-4-carboxamide]
The melting point of the first is lower: 85 to 91 °C for the first, 91 to 93 °C for the second.

First: Cn1cc(C(=O)Nc2ccccc2OC(F)(F)C(F)Cl)c(C(F)F)n1 (stereo not drawn) [Compound I-4, N-[2-(2-chloro-1,1,2-trifluoroethoxy)phenyl]-3-difluoromethyl-1-methyl-1H-pyrazole-4-carboxamide]
Second: Cn1cc(C(=O)Nc2ccccc2OC(F)(F)C(F)F)c(C(F)F)n1 [Compound I-5, N-[2-(1,1,2,2-tetrafluoroethoxy)phenyl]-3-difluoromethyl-1-methyl-1H-pyrazole-4-carboxamide]
The melting point of the first is lower: 110 to 111 °C for the first, 117 to 119 °C for the second.

Compared with Cc1nc(C(F)F)c(C(=O)Nc2ccccc2OC(F)(F)C(F)C(F)(F)F)s1 (stereo not drawn) [Compound I-11, N-[2-(1,1,2,3,3,3-hexafluoropropoxy)phenyl]-4-difluoromethyl-2-methylthiazole-5-carboxamide], Cn1cc(C(=O)Nc2ccccc2OC(F)(F)C(F)Cl)c(C(F)(F)F)n1 (stereo not drawn) [Compound I-3, N-[2-(2-Chloro-1,1,2-trifluoroethoxy)phenyl]-1-methyl-3-trifluoromethyl-1H-pyrazole-4-carboxamide] is higher in melting point: 89 to 92 °C for the first, 94 to 95 °C for the second.

System: Erysiphe [syn. Blumeria] graminis forma specialis. tritici
Experiment: Activity against mildew of wheat caused by Erysiphe [syn. Blumeria] graminis forma specialis. tritici
Type: in vivo
Conditions: 63 ppm, wheat seedlings, protective spray, assessed after 7 days; untreated plants 90% infected
Method: The active compounds were separately or jointly prepared as a stock solution comprising 25 mg of active compound which was made up to 10 ml using a mixture of acetone and/or dimethylsulfoxide and the emulsifier Uniperol® EL (wetting agent having emulsifying and dispersing action based on ethoxylated alkylphenols) in a volume ratio of solvent/emulsifier of 99 to 1. The mixture was then made up with water to 100 ml. This stock solution was diluted with the solvent/emulsifier/water mixture described to the desired concentration of active compounds. Leaves of potted wheat seedlings were sprayed to runoff point with an aqueous suspension having the active compound concentration stated below. The suspension was prepared as described above. 24 hours after the spray coating had dried on, the plants were dusted with spores of mildew of wheat (Erysiphe [syn. Blumeria] graminis forma specialis. tritici). The test plants were then placed in a greenhouse at temperatures between 20 and 24° C. and at 60 to 90% relative atmospheric humidity. After 7 days, the extent of the mildew development was determined visually in % infection of the entire leaf area.

Cn1cc(C(=O)Nc2ccccc2OC(F)(F)C(F)F)c(C(F)(F)F)n1 [N-[2-(1,1,2,2-tetrafluoroethoxy)phenyl]-3-trifluormethyl-1-methylpyrazol-4-yl-carboxamide] gave an infection of 70%.

Same assay, conditions: 250 ppm, wheat seedlings, protective spray, assessed after 7 days; untreated plants 80% infected

Cn1cc(C(=O)Nc2ccccc2OC(F)(F)C(F)F)c(C(F)(F)F)n1 [N-[2-(1,1,2,2-tetrafluoroethoxy)phenyl]-3-trifluormethyl-1-methylpyrazol-4-yl-carboxamide] gave an infection of 40%.
